Data as given in patent US20230278983A1, “INDOLE DERIVATIVES AND USES THEREOF FOR TREATING A CANCER” (Universite Claude Bernard Lyon 1, priority 2020, published 2023).
pIC50: −log10 of the molar value. Like-named read-outs stand apart in the source and are kept apart here.

Target: CK2 (Homo sapiens (Human), UniProt P68400)
Experiment: Radiometric CK2 kinase assay
Assay type: biochemical
Conditions: for inhibition at 0.05 µM: compound at 0.05 μM; for inhibition at 0.1 µM: compound at 0.10 μM
[1] = inhibition of CK2 activity, ATP 10 μM

Sequence of CK2 (P68400 whole entry): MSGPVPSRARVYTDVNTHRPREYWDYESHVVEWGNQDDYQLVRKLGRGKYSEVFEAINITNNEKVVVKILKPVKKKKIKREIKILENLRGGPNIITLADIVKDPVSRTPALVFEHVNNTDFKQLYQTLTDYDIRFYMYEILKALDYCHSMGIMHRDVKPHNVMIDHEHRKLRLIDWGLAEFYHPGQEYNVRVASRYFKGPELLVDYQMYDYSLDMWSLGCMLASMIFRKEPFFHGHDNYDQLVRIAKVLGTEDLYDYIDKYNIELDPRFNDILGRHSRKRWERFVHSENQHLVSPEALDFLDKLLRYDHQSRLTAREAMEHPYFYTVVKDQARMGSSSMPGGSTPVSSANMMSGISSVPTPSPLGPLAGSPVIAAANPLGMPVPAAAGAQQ

Compound `Cc1ccc(CS(=O)(=O)NCCN2CCC(Cn3cc(-c4c(C(=O)OCC(C)C)[nH]c5ccc(F)cc45)nn3)CC2)cc1` [AB1210, isobutyl 5-fluoro-3-(1-((1-(2-((p-tolylmethyl)sulfonamido)ethyl)piperidin-4-yl)methyl)-1H-1,2,3-triazol-4-yl)-1H-indole-2-carboxylate] has a pIC50 [1] of 7.07.
Compound `O=C(c1[nH]c2ccc(F)cc2c1-c1cn(CC2CCN(CCNS(=O)(=O)c3ccc(-c4cccnc4Cl)cc3)CC2)nn1)C1CC1` [AB1232, 4-(2-chloropyridin-3-yl)-N-(2-(4-((4-(2-(cyclopropanecarbonyl)-5-fluoro-1H-indol-3-yl)-1H-1,2,3-triazol-1-yl)methyl)piperidin-1-yl)ethyl)benzenesulfonamide] has an inhibition at 0.05 µM (ATP 10 μM) of 16%.
Work on `CCCC(=O)c1[nH]c2ccc(F)cc2c1-c1cn(CC2CCN(CCNS(=O)(=O)c3ccc(-c4cccnc4Cl)cc3)CC2)nn1` [AB1233, N-(2-(4-((4-(2-butyryl-5-fluoro-1H-indol-3-yl)-1H-1,2,3-triazol-1-yl)methyl)piperidin-1-yl)ethyl)-4-(2-chloropyridin-3-yl)benzenesulfonamide] yielded an inhibition at 0.05 µM (ATP 10 μM) of 17%.
Compound `CC(C)Cc1ccc(S(=O)(=O)NCCN2CCC(Cn3cc(-c4c(C=O)[nH]c5ccc(F)cc45)nn3)CC2)cc1` [AB1235, N-(2-(4-((4-(5-fluoro-2-formyl-1H-indol-3-yl)-1H-1,2,3-triazol-1-yl)methyl)piperidin-1-yl)ethyl)-4-isobutylbenzenesulfonamide] has a pIC50 [1] of 7.05.
With `CC(C)C(=O)c1[nH]c2ccc(F)cc2c1-c1cn(CC2CCN(CCNS(=O)(=O)c3ccc(-c4cccnc4Cl)cc3)CC2)nn1` [AB1282, 4-(2-chloropyridin-3-yl)-N-(2-(4-((4-(5-fluoro-2-isobutyryl-1H-indol-3-yl)-1H-1,2,3-triazol-1-yl)methyl)piperidin-1-yl)ethyl)benzenesulfonamide] the inhibition at 0.1 µM (ATP 10 μM) was 15%.
In the case of `CC(C)CC(=O)c1[nH]c2ccc(F)cc2c1-c1cn(CC2CCN(CCNS(=O)(=O)c3ccc(-c4cccnc4Cl)cc3)CC2)nn1` [AB1284, 4-(2-chloropyridin-3-yl)-N-(2-(4-((4-(5-fluoro-2-(3-methylbutanoyl)-1H-indol-3-yl)-1H-1,2,3-triazol-1-yl)methyl)piperidin-1-yl)ethyl)benzenesulfonamide], the inhibition at 0.1 µM (ATP 10 μM) was 15%.
`Cc1noc(C)c1-c1ccc(S(=O)(=O)NCCN2CCC(Cn3cc(-c4c(C(=O)C5CC5)[nH]c5ccc(F)cc45)nn3)CC2)cc1` [AB1285, N-(2-(4-((4-(2-(cyclopropanecarbonyl)-5-fluoro-1H-indol-3-yl)-1H-1,2,3-triazol-1-yl)methyl)piperidin-1-yl)ethyl)-4-(3,5-dimethylisoxazol-4-yl)benzenesulfonamide] showed a pIC50 of 6.03.
Work on `CC(=O)c1[nH]c2ccc(F)cc2c1-c1cn(CC2CCN(CCNS(=O)(=O)c3ccc(-c4c(C)noc4C)cc3)CC2)nn1` [AB1286, N-(2-(4-((4-(2-acetyl-5-fluoro-1H-indol-3-yl)-1H-1,2,3-triazol-1-yl)methyl)piperidin-1-yl)ethyl)-4-(3,5-dimethylisoxazol-4-yl)benzenesulfonamide] yielded a pIC50 of 6.37.
Work on `CC(=O)c1[nH]c2ccc(F)cc2c1-c1cn(CC2CCN(CCNS(=O)(=O)c3ccc(-c4c(F)cccc4F)cc3)CC2)nn1` [AB1288, N-(2-(4-((4-(2-acetyl-5-fluoro-1H-indol-3-yl)-1H-1,2,3-triazol-1-yl)methyl)piperidin-1-yl)ethyl)-2′,6′-difluoro-[1,1′-biphenyl]-4-sulfonamide] yielded a pIC50 of 7.11.
Work on `CC(=O)c1[nH]c2ccc(F)cc2c1-c1cn(CC2CCN(CCNS(=O)(=O)c3ccc(-c4cccnc4F)cc3)CC2)nn1` [AB1289, N-(2-(4-((4-(2-acetyl-5-fluoro-1H-indol-3-yl)-1H-1,2,3-triazol-1-yl)methyl)piperidin-1-yl)ethyl)-4-(2-fluoropyridin-3-yl)benzenesulfonamide] yielded a pIC50 [1] of 6.36.
Compound `CC(C)Cc1ccc(S(=O)(=O)NCCN2CCC(Cn3cc(-c4c(C(=O)c5cccnc5)[nH]c5ccc(F)cc45)nn3)CC2)cc1` [AB1301, N-(2-(4-((4-(5-fluoro-2-nicotinoyl-1H-indol-3-yl)-1H-1,2,3-triazol-1-yl)methyl)piperidin-1-yl)ethyl)-4-isobutylbenzenesulfonamide] has an inhibition at 0.1 µM (ATP 10 μM) of 3%.
Compound `CCC(C)C(=O)c1[nH]c2ccc(F)cc2c1-c1cn(CC2CCN(CCNS(=O)(=O)c3ccc(CC(C)C)cc3)CC2)nn1` (centres unmarked) [AB1302, N-(2-(4-((4-(5-fluoro-2-(2-methylbutanoyl)-1H-indol-3-yl)-1H-1,2,3-triazol-1-yl)methyl)piperidin-1-yl)ethyl)-4-isobutylbenzenesulfonamide] has an inhibition at 0.1 µM (ATP 10 μM) of 10%.
`COCc1ccccc1-c1ccc(S(=O)(=O)NCCN2CCC(Cn3cc(-c4c(C(=O)OCC(C)C)[nH]c5ccc(F)cc45)nn3)CC2)cc1` [AB1303] was tested, and the pIC50 was 7.48.
`O=C(c1[nH]c2ccc(F)cc2c1-c1cn(CC2CCN(CCNS(=O)(=O)N3CCC(c4c(F)cccc4F)CC3)CC2)nn1)C1CC1` [AB1304, N-(2-(4-((4-(2-(cyclopropanecarbonyl)-5-fluoro-1H-indol-3-yl)-1H-1,2,3-triazol-1-yl)methyl)piperidin-1-yl)ethyl)-4-(2,6-difluorophenyl)piperidine-1-sulfonamide] showed a pIC50 [1] of 6.30.
Compound `O=C(c1[nH]c2ccc(F)cc2c1-c1cn(CC2CCN(CCNS(=O)(=O)Cc3ccc(C(F)(F)F)cc3)CC2)nn1)C1CC1` [AB1305, N-(2-(4-((4-(2-(cyclopropanecarbonyl)-5-fluoro-1H-indol-3-yl)-1H-1,2,3-triazol-1-yl)methyl)piperidin-1-yl)ethyl)-1-(4-(trifluoromethyl)phenyl)methanesulfonamide] has a pIC50 [1] of 6.32.
`CC(C)CC(=O)c1[nH]c2ccc(F)cc2c1-c1cn(CC2CCN(CCNS(=O)(=O)Cc3ccc(C(F)(F)F)cc3)CC2)nn1` [AB1306, N-(2-(4-((4-(5-fluoro-2-(3-methylbutanoyl)-1H-indol-3-yl)-1H-1,2,3-triazol-1-yl)methyl)piperidin-1-yl)ethyl)-1-(4-(trifluoromethyl)phenyl)methanesulfonamide] was tested, and the pIC50 [1] was 6.35.
Work on `CCCC(=O)c1[nH]c2ccc(F)cc2c1-c1cn(CC2CCN(CCNS(=O)(=O)Cc3ccc(C(F)(F)F)cc3)CC2)nn1` [AB1307, N-(2-(4-((4-(2-butyryl-5-fluoro-1H-indol-3-yl)-1H-1,2,3-triazol-1-yl)methyl)piperidin-1-yl)ethyl)-1-(4-(trifluoromethyl)phenyl)methanesulfonamide] yielded an inhibition at 0.1 µM (ATP 10 μM) of 12%.
`CC(=O)c1[nH]c2ccc(F)cc2c1-c1cn(CC2CCN(CCNS(=O)(=O)Cc3ccc(C(F)(F)F)cc3)CC2)nn1` [AB1315, N-(2-(4-((4-(2-acetyl-5-fluoro-1H-indol-3-yl)-1H-1,2,3-triazol-1-yl)methyl)piperidin-1-yl)ethyl)-1-(4-(trifluoromethyl)phenyl)methanesulfonamide] gave an inhibition at 0.1 µM (ATP 10 μM) of 27%.
`CC(=O)c1[nH]c2ccc(F)cc2c1-c1cn(CC2CCN(CCNS(=O)(=O)N3CCC(c4c(F)cccc4F)CC3)CC2)nn1` [AB1316, N-(2-(4-((4-(2-acetyl-5-fluoro-1H-indol-3-yl)-1H-1,2,3-triazol-1-yl)methyl)piperidin-1-yl)ethyl)-4-(2,6-difluorophenyl)piperidine-1-sulfonamide] showed a pIC50 [1] of 6.55.
`CC(=O)c1[nH]c2ccc(F)cc2c1-c1cn(CC2CCN(CCNS(=O)(=O)c3ccc(CC4CC4)cc3)CC2)nn1` [AB1317, N-(2-(4-((4-(2-acetyl-5-fluoro-1H-indol-3-yl)-1H-1,2,3-triazol-1-yl)methyl)piperidin-1-yl)ethyl)-4-(cyclopropylmethyl)benzenesulfonamide] showed a pIC50 of 6.51.
With `CC(=O)c1[nH]c2ccc(F)cc2c1-c1cn(C[C@H]2CCN(CCNS(=O)(=O)c3ccc(CC(C)C)cc3)C2)nn1` [AB1318] the pIC50 was 6.52.
`CC(=O)c1[nH]c2ccc(F)cc2c1-c1cn(C[C@@H]2CCN(CCNS(=O)(=O)c3ccc(CC(C)C)cc3)C2)nn1` [AB1319] showed an inhibition at 0.1 µM (ATP 10 μM) of 33%.
With `CC(=O)c1[nH]c2ccc(F)cc2c1-c1cn(C2CCN(CCNS(=O)(=O)c3ccc(CC(C)C)cc3)CC2)nn1` [AB1321, N-(2-(4-(4-(2-acetyl-5-fluoro-1H-indol-3-yl)-1H-1,2,3-triazol-1-yl)piperidin-1-yl)ethyl)-4-isobutylbenzenesulfonamide] the inhibition at 0.1 µM (ATP 10 μM) was 4%.
In the case of `CC(=O)c1[nH]c2ccc(F)cc2c1-c1cn(CC2CCN(CCNS(=O)(=O)N3CCC(c4cccnc4F)CC3)CC2)nn1` [AB1322, N-(2-(4-((4-(2-acetyl-5-fluoro-1H-indol-3-yl)-1H-1,2,3-triazol-1-yl)methyl)piperidin-1-yl)ethyl)-4-(2-fluoropyridin-3-yl)piperidine-1-sulfonamide], the inhibition at 0.1 µM (ATP 10 μM) was 10%.
Work on `CC(=O)c1[nH]c2ccc(F)cc2c1-c1cn(CC2CCN(CCNS(=O)(=O)c3ccc(-c4ccccc4F)cc3)CC2)nn1` [AB1390, N-(2-(4-((4-(2-acetyl-5-fluoro-1H-indol-3-yl)-1H-1,2,3-triazol-1-yl)methyl)piperidin-1-yl)ethyl)-2′-fluoro-[1,1′-biphenyl]-4-sulfonamide] yielded an inhibition at 0.1 µM (ATP 10 μM) of 36%.
`CC(=O)c1[nH]c2ccc(F)cc2c1-c1cn(CC2CCN(CCNS(=O)(=O)c3ccc(-c4c(C#N)cccc4C(F)(F)F)cc3)CC2)nn1` [AB1393, N-(2-(4-((4-(2-acetyl-5-fluoro-1H-indol-3-yl)-1H-1,2,3-triazol-1-yl)methyl)piperidin-1-yl)ethyl)-2′-cyano-6′-(trifluoromethyl)-[1,1′-biphenyl]-4-sulfonamide] was tested, and the inhibition at 0.1 µM (ATP 10 μM) was 31%.
With `CC(=O)c1[nH]c2ccc(F)cc2c1-c1cn(CC2CCN(CCNS(=O)(=O)c3ccc(-c4ccccc4C(F)(F)F)cc3)CC2)nn1` [AB1394, N-(2-(4-((4-(2-acetyl-5-fluoro-1H-indol-3-yl)-1H-1,2,3-triazol-1-yl)methyl)piperidin-1-yl)ethyl)-2′-(trifluoromethyl)-[1,1′-biphenyl]-4-sulfonamide] the pIC50 was 7.64.
`CC(C)COC(=O)c1[nH]c2ccc(F)cc2c1-c1cn(CC2CCN(CCNS(=O)(=O)c3ccc(-c4c(O)cccc4F)cc3)CC2)nn1` [AB1402, isobutyl 5-fluoro-3-(1-((1-(2-((2′-fluoro-6′-hydroxy-[1,1′-biphenyl])-4-sulfonamido)ethyl)piperidin-4-yl)methyl)-1H-1,2,3-triazol-4-yl)-1H-indole-2-carboxylate] showed a pIC50 [1] of 7.35.
`CC(=O)c1[nH]c2ccc(F)cc2c1-c1cn(C[C@H]2CCCN(CCNS(=O)(=O)c3ccc(CC(C)C)cc3)C2)nn1` [AB1403] showed an inhibition at 0.1 µM (ATP 10 μM) of 9%.
